Assay results: US20100152261A1 (MITSUBISHI TANABE PHARMA CORPORATION, priority 2005, published 2010)
Where two headings read alike, the source gives them in different places. Blank lines part the entries; values can stand above or below the compound they belong to.

What was measured:
muscarinic M3 receptor = target: T1, muscarinic M3 receptor (Cavia porcellus, UniProt H0W1Z3); test: Muscarinic M3 antagonistic action in isolated guinea pig trachea (carbachol-induced contraction, Schild method); type: cell-based; conditions: compound applied 15 minutes before carbachol
T1 construct: trachea was excised, and cut at every two tracheal cartilages to prepare tissue specimens; from tissue; host or cells: isolated guinea pig trachea (male Hartley)
T1 sequence (H0W1Z3 1-590): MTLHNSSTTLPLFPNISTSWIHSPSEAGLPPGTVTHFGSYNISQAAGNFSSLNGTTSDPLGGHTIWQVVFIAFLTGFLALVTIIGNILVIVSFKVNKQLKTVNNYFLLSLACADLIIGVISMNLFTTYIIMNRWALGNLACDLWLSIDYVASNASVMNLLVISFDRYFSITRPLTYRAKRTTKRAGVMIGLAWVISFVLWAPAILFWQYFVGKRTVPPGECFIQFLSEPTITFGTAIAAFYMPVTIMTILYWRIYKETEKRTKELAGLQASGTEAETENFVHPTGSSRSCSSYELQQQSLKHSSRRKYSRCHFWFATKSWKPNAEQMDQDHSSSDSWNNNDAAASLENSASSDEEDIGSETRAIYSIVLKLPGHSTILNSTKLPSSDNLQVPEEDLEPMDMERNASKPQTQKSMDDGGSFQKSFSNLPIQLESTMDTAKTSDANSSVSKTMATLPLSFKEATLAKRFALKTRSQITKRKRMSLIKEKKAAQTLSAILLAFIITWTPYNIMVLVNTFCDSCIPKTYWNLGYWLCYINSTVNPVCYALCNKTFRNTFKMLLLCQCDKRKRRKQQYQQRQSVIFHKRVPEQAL
Protocol: Muscarinic M3 Antagonistic Action in Isolated Guinea Pig Trachea
Male Hartley guinea pigs (350 to 600 g) were sacrificed by bleeding, and trachea was excised, and cut at every two tracheal cartilages to prepare tissue specimens. Each tissue specimen was kept warm at 37° C., suspended with a resting tension of 1 g in a 5-mL Magnus bath filled with a Krebs carbonate buffer containing indomethacin (1 μM) bubbled with 95% O2/5% CO2, and left for 60 minutes as a stabilization period. […] After the measurement, the tissue specimen was immediately washed, and left for 60 minutes as a stabilization period before the next contraction reaction, and the tissue specimen of which EC50 for the carbachol-induced contraction reaction was stabilized was considered as a control. Each test compound was applied 15 minutes before the addition of carbachol. The affinity (pA2) of the test compound was obtained by the Schild method (Arunlakshana, O. and Schild, H. O., Brit. J. Pharmacol., 1959, 14, 48-58).

muscarinic M2 receptor = target: T2, muscarinic M2 receptor (Cavia porcellus, UniProt H0VRN8); test: Muscarinic M2 antagonistic action in isolated guinea pig left atrium (carbachol-induced relaxation, Schild method); type: cell-based; conditions: compound applied 30 minutes before carbachol
T2 construct: left atria were excised to prepare tissue specimens; from tissue; host or cells: isolated guinea pig left atrium (male Hartley)
T2 sequence (H0VRN8 1-466): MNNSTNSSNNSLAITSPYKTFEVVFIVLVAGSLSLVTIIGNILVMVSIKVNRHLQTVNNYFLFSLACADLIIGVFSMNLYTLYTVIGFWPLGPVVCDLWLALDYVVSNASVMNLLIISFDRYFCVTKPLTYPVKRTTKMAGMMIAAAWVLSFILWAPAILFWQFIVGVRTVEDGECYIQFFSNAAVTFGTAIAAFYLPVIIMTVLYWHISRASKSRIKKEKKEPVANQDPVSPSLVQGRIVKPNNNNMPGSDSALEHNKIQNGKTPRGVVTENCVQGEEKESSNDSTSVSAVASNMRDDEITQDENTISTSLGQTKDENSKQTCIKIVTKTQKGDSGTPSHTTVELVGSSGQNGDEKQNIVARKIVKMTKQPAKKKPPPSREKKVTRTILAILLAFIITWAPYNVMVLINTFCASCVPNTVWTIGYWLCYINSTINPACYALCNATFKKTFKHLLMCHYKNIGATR
Protocol: Muscarinic M2 Antagonistic Action in Isolated Guinea Pig Left Atrium […] Each tissue specimen was kept warm at 37° C., suspended with a resting tension of 0.5 g in a 5-mL Magnus bath filled with a Krebs carbonate buffer bubbled with 95% O2/5% CO2. Then, contraction evoked by field electrical stimulation (4 Hz, 2 msec, 1.5×threshold potential) was measured. After a stabilization period of 60 minutes, carbachol-induced relaxation was isometrically measured and recorded by the cumulative method from 10^−8 M with an interval of 90 seconds for one concentration in an equal ratio of 3. After the measurement, the tissue specimen was immediately washed, and left for 45 minutes as a stabilization period before the next observation. The tissue specimen of which EC50 for the carbachol-induced relaxation was stabilized was considered as a control. Each test compound was applied 30 minutes before the addition of carbachol. The affinity (pA2) of the test compound was obtained in the same manner as in the case of the trachea.

[1] = test system: Bronchoconstriction in Guinea Pigs (induced with acetylcholine); test: Effect on bronchoconstriction in guinea pigs (via inhalation administration), Konzett method; type: in vivo; conditions: guinea pig, intratracheal administration 10 μL g/head, 24 hours after administration, acetylcholine 4 μg/kg i.v., versus control group; for inhibition in vivo at 0.01 mg: Cavia porcellus, iv, read-out: Percent of inhibition of bronchoconstriction (%)
Protocol: Effect on Bronchoconstriction in Guinea Pigs (Via Inhalation Administration)
The test was performed according to the method of Konzett et al. (Arch. Exp. Path Pharmak., 1940, 195, 71-74). Male Hartley guinea pigs (350 to 600 g) were anesthetized with urethane (1.8 g/kg, i.p.), and then a cannula for drug administration was inserted into each left jugular vein. After the immobilization with decamethonium (2 mg/kg, i.v.), a tracheal cannula was inserted, and controlled respiration was attained by a respirator (Harvard). Bronchoconstriction was measured as changes of airway pressure with a pressure transducer (Nihon Kohden Corp.). Each test compound was administered (10 μL g/head) from dissected trachea by using a device for intratracheal administration of liquid for guinea pigs (Penn Century), and after suture, the animals were returned to usual breeding. After 24 hours, acetylcholine (4 μg/kg, i.v.) was administered to induce bronchoconstriction, and inhibitory activity on bronchoconstriction was calculated as percent inhibition comparing to the change of airway pressure in control group was obtained.

[2] = isolated guinea pig trachea, read-out: pA2 Trachea M3 (converted)
[3] = isolated guinea pig left atrium, read-out: pA2 Left atrium M2 (converted)
[4] = isolated guinea pig left atrium
[5] = pA2 Trachea M3, isolated guinea pig trachea
[6] = pA2 Left atrium M2, isolated guinea pig left atrium

SMILES: CC1=[N+](C)CCN1[C@@H]1CC[C@H](C(C(N)=O)(c2ccccc2)c2ccccc2)C1 [Example 60, 3-((1R,3S)-3-(Carbamoyl(diphenyl)methyl)cyclopentyl)-1,2-dimethyl-4,5-dihydro-3H-imidazol-1-ium para-toluenesulfonate]
Kb (muscarinic M3 receptor; [2]): 0.631 nM
Kb (muscarinic M2 receptor; [3]): 15.8 nM
inhibition in vivo at 0.01 mg [1]: 90%

SMILES: Cc1n([C@H]2CC[C@@H](C(C(N)=O)(c3ccccc3)c3ccccc3)C2)cc[n+]1CC1CC1 (relative stereo) [Example 30, 3-(cis-3-(Carbamoyl(diphenyl)methyl)cyclopentyl)-1-cyclopropylmethyl-2-methyl-3H-imidazol-1-ium bromide]
inhibition in vivo at 0.01 mg [1]: 80%

SMILES: Cc1n(Cc2ccc(F)cc2)cc[n+]1[C@H]1CC[C@@H](C(C(N)=O)(c2ccccc2)c2ccccc2)C1.[Br-] (relative stereo) [Example 7, 3-(cis-3-(Carbamoyl(diphenyl)methyl)cyclopentyl)-1-(4-fluoro-benzyl)-2-methyl-1-3H-imidazol-1-ium bromide]
pA2 Trachea M3 (muscarinic M3 receptor; isolated guinea pig trachea): 9.6
pA2 Left atrium M2 (muscarinic M2 receptor; [4]): 8.5
Percent of inhibition of bronchoconstriction (%) [1]: 90%

SMILES: Cc1n([C@H]2CC[C@@H](C(C(N)=O)(c3ccccc3)c3ccccc3)C2)cc[n+]1CC[C@H]1CO1.[Br-] (relative stereo) [Example 36, 3-(cis-3-(Carbamoyl(diphenyl)methyl)cyclopentyl)-2-methyl-1-(2-(S)-oxiranyl-ethyl)-3H-imidazo-1-ium bromide]
pA2 Trachea M3 (muscarinic M3 receptor; isolated guinea pig trachea): 9
pA2 Left atrium M2 (muscarinic M2 receptor; [4]): 7.7
Percent of inhibition of bronchoconstriction (%) [1]: 90%

Kb (muscarinic M3 receptor; [2]): 5.01 nM
Kb (muscarinic M2 receptor; [3]): 79.4 nM
SMILES: CC1=NCCN1[C@@H]1CC[C@H](C(C(N)=O)(c2ccccc2)c2ccccc2)C1 (relative stereo) [Reference Example 13, 2-(cis-3-(2-Methyl-4,5-dihydroimidazol-1-yl)cyclopentyl)-2,2-diphenylacetamide, reference compound]
inhibition in vivo at 0.01 mg [1]: 20%

Kb (muscarinic M3 receptor; [2]): 0.794 nM
Kb (muscarinic M2 receptor; [3]): 50.1 nM
SMILES: Cc1nccn1[C@@H]1CC[C@H](C(C(N)=O)(c2ccccc2)c2ccccc2)C1 (relative stereo) [Reference Example 5, 2-(cis-3-(2-Methylimidazol-1-yl)cyclopentyl)-2,2-diphenylacetamide, reference compound]
inhibition in vivo at 0.01 mg [1]: 0%

SMILES: CC1=[N+](C)CCN1[C@H]1CC[C@@H](C(C(N)=O)(c2ccccc2)c2ccccc2)C1 (relative stereo) [Example 56, 3-(cis-3-(Carbamoyl(diphenyl)methyl)cyclopentyl)-1,2-dimethyl-4,5-dihydro-3H-imidazol-1-ium iodide]
Kb (muscarinic M3 receptor; [5]): 2.51 nM
Kb (muscarinic M2 receptor; [6]): 31.6 nM
inhibition in vivo at 0.01 mg [1]: 100%

pA2 Trachea M3 (muscarinic M3 receptor; isolated guinea pig trachea): 9
pA2 Left atrium M2 (muscarinic M2 receptor; [4]): 7.7
SMILES: Cc1n(CC2CO2)cc[n+]1[C@H]1CC[C@@H](C(C(N)=O)(c2ccccc2)c2ccccc2)C1.[Br-] (relative stereo) [Example 22]
Percent of inhibition of bronchoconstriction (%) [1]: 80%

SMILES: COCC[n+]1ccn([C@@H]2CC[C@H](C(C(N)=O)(c3ccccc3)c3ccccc3)C2)c1C [Example 63, 3-((1R,3S)-3-(Carbamoyl(diphenyl)methyl)cyclopentyl)-1-(2-methoxyethyl)-2-methyl-3H-imidazol-1-ium bromide]
Kb (muscarinic M3 receptor; [5]): 0.316 nM
Kb (muscarinic M2 receptor; [6]): 7.94 nM
inhibition in vivo at 0.01 mg [1]: 100%

SMILES: CC(=O)C[n+]1ccn([C@@H]2CC[C@H](C(C(N)=O)(c3ccccc3)c3ccccc3)C2)c1C [Example 90, 3-((1R,3S)-3-(Carbamoyl(diphenyl)methyl)cyclopentyl)-2-methyl-1-(2-oxopropyl)-3H-imidazol-1-ium bromide]
Kb (muscarinic M3 receptor; [5]): 0.794 nM
Kb (muscarinic M2 receptor; [6]): 316 nM
inhibition in vivo at 0.01 mg [1]: 100%

SMILES: Cc1cccc(C[n+]2ccn([C@H]3CC[C@@H](C(C(N)=O)(c4ccccc4)c4ccccc4)C3)c2C)c1 (relative stereo) [Example 8, 3-(cis-3-(Carbamoyl(diphenyl)methyl)cyclopentyl)-2-methyl-1-(3-methyl-benzyl)-3H-imidazol-1-ium bromide]
Kb (muscarinic M3 receptor; [5]): 0.316 nM
Kb (muscarinic M2 receptor; [6]): 10 nM
inhibition in vivo at 0.01 mg [1]: 90%

SMILES: Cc1n([C@H]2CC[C@@H](C(C(N)=O)(c3ccccc3)c3ccccc3)C2)cc[n+]1CCCO (relative stereo) [Example 54, 3-(cis-3-(Carbamoyl(diphenyl)methyl)cyclopentyl)-1-(3-hydroxy-propyl)-2-methyl-3H-imidazol-1-ium bromide]
Kb (muscarinic M3 receptor; [5]): 1 nM
Kb (muscarinic M2 receptor; [6]): 31.6 nM

SMILES: Cc1n([C@H]2CC[C@H](C(C(N)=O)(c3ccccc3)c3ccccc3)C2)cc[n+]1Cc1ccccc1 (single isomer, unassigned) [Example 97, 1-Benzyl-3-(trans-3-(carbamoyl(diphenyl)methyl)cyclopentyl)-2-methyl-3H-imidazol-1-ium bromide]
Kb (muscarinic M3 receptor; [5]): 0.1 nM
Kb (muscarinic M2 receptor; [6]): 3.98 nM

SMILES: Cc1n([C@H]2CC[C@@H](C(C(N)=O)(c3ccccc3)c3ccccc3)C2)cc[n+]1C(F)F (relative stereo) [Example 37, 3-(cis-3-(Carbamoyl(diphenyl)methyl)cyclopentyl)-1-difluoromethyl-2-methyl-3H-imidazol-1-ium bromide]
Kb (muscarinic M3 receptor; [5]): 0.794 nM
inhibition in vivo at 0.01 mg [1]: 80%

SMILES: Cc1n([C@H]2CC[C@H](C(C(N)=O)(c3ccccc3)c3ccccc3)C2)cc[n+]1Cc1ccccc1 (single isomer, unassigned) [Example 98, 1-Benzyl-3-(trans-3-(carbamoyl(diphenyl)methyl)cyclopentyl)-2-methyl-3H-imidazol-1-ium bromide]
Kb (muscarinic M3 receptor; [5]): 0.398 nM
Kb (muscarinic M2 receptor; [6]): 15.8 nM

SMILES: CC(=O)C[n+]1ccn([C@H]2CC[C@H](C(C(N)=O)(c3ccccc3)c3ccccc3)C2)c1C (relative stereo) [Example 86, 3-(trans-3-(Carbamoyl(diphenyl)methyl)cyclopentyl)-2-methyl-1-(2-oxopropyl)-3H-imidazol-1-ium bromide]
Kb (muscarinic M3 receptor; [5]): 1.26 nM
Kb (muscarinic M2 receptor; [6]): 1260 nM

SMILES: COCC[n+]1ccn([C@@H]2CC[C@H](C(C(N)=O)(c3ccccc3)c3ccccc3)C2)c1C [Example 77, 3-((1R,3S)-3-(Carbamoyl(diphenyl)methyl)cyclopentyl)-1-(2-methoxyethyl)-2-methyl-3H-imidazol-1-ium para-toluenesulfonate]
Kb (muscarinic M3 receptor; [2]): 0.251 nM
Kb (muscarinic M2 receptor; [3]): 6.31 nM

SMILES: Cc1n([C@H]2CC[C@@H](C(C(N)=O)(c3ccccc3)c3ccccc3)C2)cc[n+]1C [Example 94, 3-((1S,3R)-3-(Carbamoyl(diphenyl)methyl)cyclopentyl)-1,2-dimethyl-3H-imidazol-1-ium para-toluenesulfonate]
Kb (muscarinic M3 receptor; [2]): 0.794 nM
Kb (muscarinic M2 receptor; [3]): 100 nM

SMILES: CC1=[N+](C)CCN1[C@@H]1CC[C@H](C(C(N)=O)(c2ccccc2)c2ccccc2)C1 [Example 57, 3-((1R,3S)-3-(Carbamoyl(diphenyl)methyl)cyclopentyl)-1,2-dimethyl-4,5-dihydro-3H-imidazol-1-ium iodide]
Kb (muscarinic M3 receptor; [5]): 1.26 nM
Kb (muscarinic M2 receptor; [6]): 25.1 nM
